Experimental data reported in patent US12077503B2, “Substituted cyclic amides and their use as herbicides” (FMC CORPORATION, priority 2015, dated 2024).

Assays:
Type in all cases: in vivo
[1] = tested on: Kochia (Kochia scoparia); assay: Test A preemergence; conditions: Bassia scoparia, pre-emergence, 240 h, 0 to 100 scale where 0 is no effect and 100 is complete control, read-out: Kochia plant response rating; for pest or weed control at 31 g/ha: 31 g ai/ha, Preemergence; for pest or weed control at 125 g/ha: 125 g ai/ha, preemergence, approx. 10 d
Outline: (§1)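 Preemergence directed soil spray on seeded pots, or postemergence application to plants 2–10 cm, one- to two-leaf. Solvent mixture non-phytotoxic, with surfactant. Scored ~10 d later, visually, 0–100 vs untreated.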

[2] = tested on: barnyardgrass (Echinochloa crus-galli); assay: Test A preemergence; conditions: Echinochloa crus-galli, pre-emergence, 240 h, Preemergence; for pest or weed control at 31 g/ha: 31 g ai/ha, 0 to 100 scale where 0 is no effect and 100 is complete control, read-out: Barnyardgrass plant response rating; for pest or weed control at 125 g/ha: 125 g ai/ha, visual injury rating after approximately 10 d, read-out: Barnyardgrass plant response rating (0 to 100 scale, 0 is no effect, 100 is complete control)
Outline: as §1

[3] = tested on: giant foxtail (Setaria faberii); assay: Test A preemergence; conditions: Setaria faberi, pre-emergence, 240 h, Preemergence; for pest or weed control at 31 g/ha: 31 g ai/ha, 0 to 100 scale where 0 is no effect and 100 is complete control, read-out: Foxtail, Giant plant response rating; for pest or weed control at 125 g/ha: 125 g ai/ha, visual injury rating after approximately 10 d, read-out: Foxtail, Giant plant response rating (0 to 100 scale, 0 is no effect, 100 is complete control)
Outline: as §1

[4] = tested on: pigweed (Amaranthus retroflexus); assay: Test A preemergence; conditions: Amaranthus retroflexus, pre-emergence, 240 h, 0 to 100 scale where 0 is no effect and 100 is complete control, read-out: Pigweed plant response rating; for pest or weed control at 31 g/ha: 31 g ai/ha, Preemergence; for pest or weed control at 125 g/ha: 125 g ai/ha, preemergence, approx. 10 d
[5] = tested on: ragweed (common ragweed, Ambrosia elatior); assay: Test A preemergence; conditions: Ambrosia artemisiifolia, pre-emergence, 240 h, 0 to 100 scale where 0 is no effect and 100 is complete control, read-out: Ragweed plant response rating; for pest or weed control at 31 g/ha: 31 g ai/ha, Preemergence; for pest or weed control at 125 g/ha: 125 g ai/ha, preemergence, approx. 10 d
Outline: as §1

[6] = tested on: ryegrass, Italian (Italian ryegrass, Lolium multiflorum); assay: Test A preemergence; conditions: Lolium multiflorum, pre-emergence, 240 h, 0 to 100 scale where 0 is no effect and 100 is complete control, read-out: Ryegrass, Italian plant response rating; for pest or weed control at 31 g/ha: 31 g ai/ha, Preemergence; for pest or weed control at 125 g/ha: 125 g ai/ha, preemergence, approx. 10 d
Outline: as §1

[7] = tested on: Galium (catchweed bedstraw, Galium aparine); assay: Test A postemergence; conditions: Galium, post-emergence, 240 h; for pest or weed control at 125 g/ha: 125 g ai/ha, postemergence, visual injury on 0 to 100 scale (0 no effect, 100 complete control), approx. 10 d, read-out: Galium plant response rating; for pest or weed control at 31 g/ha: Postemergence, 31 g ai/ha, visual injury after approx. 10 d, 0 to 100 scale, 0 no effect, 100 complete control, read-out: Plant response rating, Galium
Outline: as §1

[8] = tested on: Kochia (Kochia scoparia); assay: Test A postemergence; conditions: Bassia scoparia, post-emergence, 240 h; for pest or weed control at 125 g/ha: 125 g ai/ha, postemergence, visual injury on 0 to 100 scale (0 no effect, 100 complete control), approx. 10 d, read-out: Kochia plant response rating; for pest or weed control at 31 g/ha: Postemergence, 31 g ai/ha, visual injury after approx. 10 d, 0 to 100 scale, 0 no effect, 100 complete control, read-out: Plant response rating, Kochia
Outline: as §1

[9] = tested on: barnyardgrass (Echinochloa crus-galli); assay: Test A postemergence; conditions: Echinochloa crus-galli, post-emergence, 240 h; for pest or weed control at 125 g/ha: 125 g ai/ha, postemergence, visual injury on 0 to 100 scale (0 no effect, 100 complete control), approx. 10 d, read-out: Barnyardgrass plant response rating; for pest or weed control at 31 g/ha: Postemergence, 31 g ai/ha, visual injury after approx. 10 d, 0 to 100 scale, 0 no effect, 100 complete control, read-out: Plant response rating, Barnyardgrass
Outline: as §1

[10] = tested on: blackgrass (Alopecurus myosuroides); assay: Test A postemergence; conditions: Alopecurus myosuroides, post-emergence, 240 h; for pest or weed control at 125 g/ha: 125 g ai/ha, postemergence, visual injury on 0 to 100 scale (0 no effect, 100 complete control), approx. 10 d, read-out: Blackgrass plant response rating; for pest or weed control at 31 g/ha: Postemergence, 31 g ai/ha, visual injury after approx. 10 d, 0 to 100 scale, 0 no effect, 100 complete control, read-out: Plant response rating, Blackgrass
Outline: as §1

[11] = tested on: corn (Zea mays); assay: Test A postemergence; conditions: Zea mays, post-emergence, 240 h; for plant injury at 125 g/ha: 125 g ai/ha, postemergence, visual injury on 0 to 100 scale (0 no effect, 100 complete control), approx. 10 d, read-out: Corn plant response rating; for Corn plant response rating (crop injury, 0 = no effect, 100 = complete kill) at 31 g/ha: Postemergence, 31 g ai/ha, visual injury after approx. 10 d, 0 to 100 scale, 100 complete control
Outline: as §1

[12] = tested on: giant foxtail (Setaria faberii); assay: Test A postemergence; conditions: Setaria faberi, post-emergence, 240 h; for pest or weed control at 125 g/ha: 125 g ai/ha, postemergence, visual injury on 0 to 100 scale (0 no effect, 100 complete control), approx. 10 d, read-out: Foxtail, Giant plant response rating; for pest or weed control at 31 g/ha: Postemergence, 31 g ai/ha, visual injury after approx. 10 d, 0 to 100 scale, 0 no effect, 100 complete control, read-out: Plant response rating, Foxtail, Giant
Outline: as §1

[13] = tested on: pigweed (Amaranthus retroflexus); assay: Test A postemergence; conditions: Amaranthus retroflexus, post-emergence, 240 h; for pest or weed control at 125 g/ha: 125 g ai/ha, postemergence, visual injury on 0 to 100 scale (0 no effect, 100 complete control), approx. 10 d, read-out: Pigweed plant response rating; for pest or weed control at 31 g/ha: Postemergence, 31 g ai/ha, visual injury after approx. 10 d, 0 to 100 scale, 0 no effect, 100 complete control, read-out: Plant response rating, Pigweed
Outline: as §1

[14] = tested on: ragweed (common ragweed, Ambrosia elatior); assay: Test A postemergence; conditions: Ambrosia artemisiifolia, post-emergence, 240 h; for pest or weed control at 125 g/ha: 125 g ai/ha, postemergence, visual injury on 0 to 100 scale (0 no effect, 100 complete control), approx. 10 d, read-out: Ragweed plant response rating; for pest or weed control at 31 g/ha: Postemergence, 31 g ai/ha, visual injury after approx. 10 d, 0 to 100 scale, 0 no effect, 100 complete control, read-out: Plant response rating, Ragweed
Outline: as §1

[15] = tested on: ryegrass, Italian (Italian ryegrass, Lolium multiflorum); assay: Test A postemergence; conditions: Lolium multiflorum, post-emergence, 240 h; for pest or weed control at 125 g/ha: 125 g ai/ha, postemergence, visual injury on 0 to 100 scale (0 no effect, 100 complete control), approx. 10 d, read-out: Ryegrass, Italian plant response rating; for pest or weed control at 31 g/ha: Postemergence, 31 g ai/ha, visual injury after approx. 10 d, 0 to 100 scale, 0 no effect, 100 complete control, read-out: Plant response rating, Ryegrass, Italian
Outline: as §1

[16] = tested on: wheat (Triticum aestivum); assay: Test A postemergence; conditions: Triticum aestivum, post-emergence, 240 h; for plant injury at 125 g/ha: 125 g ai/ha, postemergence, visual injury on 0 to 100 scale (0 no effect, 100 complete control), approx. 10 d, read-out: Wheat plant response rating; for plant injury at 31 g/ha: Postemergence, 31 g ai/ha, visual injury after approx. 10 d, 0 to 100 scale, 0 no effect, 100 complete control, read-out: Plant response rating, Wheat
Outline: as §1

[17] = tested on: barnyardgrass (Echinochloa crus-galli); assay: Test B flooded paddy test; conditions: Echinochloa crus-galli, 250 g ai/ha, Flood; 0 to 100 scale where 0 is no effect and 100 is complete control; read-out: Barnyardgrass plant response rating
Outline: (§2)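 2-leaf plants; pots flooded 3 cm over soil; cpd added to paddy water; depth held; greenhouse 13–15 d; visual rating vs controls, 0 = no effect, 100 = complete control.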

[18] = tested on: ducksalad (Heteranthera limosa); assay: Test B flooded paddy test; conditions: Heteranthera limosa, 250 g ai/ha, Flood; 0 to 100 scale where 0 is no effect and 100 is complete control; read-out: Ducksalad plant response rating
Outline: as §2

[19] = tested on: rice (Oryra sativa); assay: Test B flooded paddy test; conditions: Oryza sativa, 250 g ai/ha, Flood; 0 to 100 scale where 0 is no effect and 100 is complete control; read-out: Rice plant response rating
Outline: as §2

[20] = tested on: sedge, umbrella (small-flower umbrella sedge, Cyperus difformis); assay: Test B flooded paddy test; conditions: Cyperus difformis, 250 g ai/ha, Flood; 0 to 100 scale where 0 is no effect and 100 is complete control; read-out: Sedge, Umbrella plant response rating
Outline: as §2

Structure (SMILES) | pest or weed control at 31 g/ha [1] | pest or weed control at 125 g/ha [1] | pest or weed control at 31 g/ha [2] | pest or weed control at 125 g/ha [2] | pest or weed control at 31 g/ha [3] | pest or weed control at 125 g/ha [3] | pest or weed control at 31 g/ha [4] | pest or weed control at 125 g/ha [4] | pest or weed control at 31 g/ha [5] | pest or weed control at 125 g/ha [5] | pest or weed control at 31 g/ha [6] | pest or weed control at 125 g/ha [6] | pest or weed control at 125 g/ha [7] | pest or weed control at 31 g/ha [7] | pest or weed control at 125 g/ha [8] | pest or weed control at 31 g/ha [8] | pest or weed control at 125 g/ha [9] | pest or weed control at 31 g/ha [9] | pest or weed control at 125 g/ha [10] | pest or weed control at 31 g/ha [10] | further results
COc1cccc([C@H]2CNC(=O)[C@@H]2C(=O)Nc2cccc(F)c2F)c1F [Compound 1061] | 0% | 0% | 40% | 80% | 20% | 70% | 0% | 0% | 0% | 0% | 0% | 0% | 0% | 0% | 0% | 0% | 80% | 50% | 0% | 0% | plant injury at 125 g/ha [11]: 0%; Corn plant response rating (crop injury, 0 = no effect, 100 = complete kill) at 31 g/ha [11]: 0%; pest or weed control at 125 g/ha [12]: 20%; pest or weed control at 31 g/ha [12]: 0%; pest or weed control at 125 g/ha [13]: 0%; pest or weed control at 31 g/ha [13]: 0%; pest or weed control at 125 g/ha [14]: 0%; pest or weed control at 31 g/ha [14]: 0%; pest or weed control at 125 g/ha [15]: 0%; pest or weed control at 31 g/ha [15]: 0%; plant injury at 125 g/ha [16]: 0%; plant injury at 31 g/ha [16]: 0%; pest or weed control at 250 g/ha [17]: 60%; pest or weed control at 250 g/ha [18]: 95%; pest or weed control at 250 g/ha [19]: 15%; pest or weed control at 250 g/ha [20]: 0%
Cc1ccncc1NC(=O)[C@H]1C(=O)N(C)C[C@@H]1c1cccc(C(F)(F)F)c1 [Compound 1069] | 0% | 0% | 0% | 0% | 0% | 50% | 0% | 0% | 0% | 0% | 0% | 0% | 0% | 0% | 0% | 0% | 0% | 0% | 0% | 0% | plant injury at 125 g/ha [11]: 0%; Corn plant response rating (crop injury, 0 = no effect, 100 = complete kill) at 31 g/ha [11]: 0%; pest or weed control at 125 g/ha [12]: 0%; pest or weed control at 31 g/ha [12]: 0%; pest or weed control at 125 g/ha [13]: 0%; pest or weed control at 31 g/ha [13]: 0%; pest or weed control at 125 g/ha [14]: 0%; pest or weed control at 31 g/ha [14]: 0%; pest or weed control at 125 g/ha [15]: 0%; pest or weed control at 31 g/ha [15]: 0%; plant injury at 125 g/ha [16]: 0%; plant injury at 31 g/ha [16]: 0%; pest or weed control at 250 g/ha [17]: 20%; pest or weed control at 250 g/ha [18]: 35%; pest or weed control at 250 g/ha [19]: 0%; pest or weed control at 250 g/ha [20]: 0%
